For series [1] the following is noted: cited from earlier work; for pH: amino acid; for Solubility: at 25° C.
The conditions of series [2]: cited from earlier work; for pH: pH is altered by concentration and temperature; for Solubility: solubility is altered by temperature.
Series [3] in a line: Calculation of Essential pH and Stability Range Factor (SRF). It counts as physicochemical. The conditions noted are these: calculated from pKa; read-out: Stability Range Factor (SRF), pH range (pKa + 0.7) to 10.9. The protocol: A proton pump inhibitor dose within its calculated pHE range is designed to ensure sufficient proton pump inhibitor protection from acid degradation such that delivery to and action upon proton pumps occur. In one desirable embodiment, the pHE is the sum of the pKa of a given proton pump inhibitor plus about 0.7.
SRF is calculated based on the desirable shelf-life (or a dwell time), the environmental pH and the amount of acid expected to be encountered, along with a knowledge of the time of exposure expected after the drug is administered and before the drug reaches the blood (i.e., the dwell time).
The upper limit of the SRF is a function of the tolerability of the gastrointestinal mucosa to alkaline substances, which is determined by the Formulation pH and the concentration of alkaline material presented. […] It is acknowledged that the amount of buffer is an important aspect of the tissue destructive potential of an alkaline substance.
Examples of pHE calculations with SRF for specific proton pump inhibiting agents are as follows:
pHE of proton pump inhibitor=pKa of proton pump inhibitor+0.7.

The conditions of series [4]: acidic stomach / gastric environment (pH of 1.2 where stated), upon complete dissolution; cited from earlier work.
For series [5] the following is noted: cited from earlier work.
Series [6] relates to gastric pH. The experiment in a line: Example IX: gastric pH of nasogastric aspirate (pH paper) in mechanically ventilated critically ill patients. Format: in vivo, human. The conditions noted are these: mean ± standard deviation where given. Here is the method: Each dose was administered through the nasogastric tube.
Gastric pH was measured immediately after aspirating gastric contents through the nasogastric tube. pH paper (pHydrion improved pH papers, Microessential Laboratory, Brooklyn, N.Y.) was used to measure gastric aspirate pH. The pH range of the test strips was 1 to 11, in increments of one pH unit. Gastric pH was measured before the initiation of omeprazole solution therapy, immediately before each dose, and every four hours between doses.

A short description of series [7]: clinical. The conditions noted are these: human, plasma, 40 mg.
The nature of series [8]: clinical. The following applies: human, plasma, oral, 40 mg.
Series [9] has as its system gastric pH. Kind of series: Example XIV: continuous gastric pH monitoring (Zinetics probe) after omeprazole suspension. The conditions noted are these: from 1 h after administration for the entire 24-h study period; both routes.
A short description of series [10]: Example XV: omeprazole concentration vs time after single dose SOS in patients at risk for SRMD (HPLC). The conditions noted are these: single dose SOS 40 mg.
For series [11], the system named is stress-related mucosal bleeding. Kind of series: Example IX: clinically significant stress-related mucosal bleeding, mortality, pneumonia and adverse events in mechanically ventilated critically ill patients.

Where “and” joins values, the source holds several entries; their conditions need not be identical. Equal values may be shown once. Entries after “also recorded” stand apart in the source; their conditions may differ. Read-outs that look alike come from different tables or passages of the source.

The text below walks through data of US20050004171A1, “Novel substituted benzimidazole dosage forms and method of using same” (priority 1996, published 2005).

A word on the pKa: it is the negative logarithm of the acid dissociation constant.

As for `C[C@H](N)C(=O)O` [Alanine], in series [1], the pH is 6 and the Solubility is listed as 16.65 g/100 g H2O.
With `N=C(N)NCCC[C@H](N)C(=O)O` [Arginine], the pH in series [1] was 11.15.
With `NC(=O)C[C@H](N)C(=O)O` [Asparagine], in series [1], the pH is given as 5.41 and the Solubility is 3.53 g/100 g H2O.
Consider `N[C@@H](CC(=O)O)C(=O)O` [Aspartic Acid], for which, in [1], the pH is 2.77.
For the molecule `O=C([O-])CC(O)(CC(=O)[O-])C(=O)[O-].O=C([O-])CC(O)(CC(=O)[O-])C(=O)[O-].[Ca+2].[Ca+2].[Ca+2]` [Calcium citrate], in series [2], the pH is given as 6.8.
Consider `CC(O)C(=O)[O-].CC(O)C(=O)[O-].[Ca+2]` (centres unmarked) [Calcium lactate], for which the pH in series [2] was 7.
Regarding `N[C@@H](CS)C(=O)O` [Cysteine], in [1], the pH is 5.02 and the Solubility entry is recorded as “Very”.
`O=P([O-])([O-])O.[Na+].[Na+]` [Dibasic sodium phosphate]: the pH in [2] was 8.6-9.3.
With `N[C@@H](CCC(=O)O)C(=O)O` [Glutamic Acid], in series [1], the pH is 3.22.
On to `NC(=O)CC[C@H](N)C(=O)O` [Glutamine], for which the Solubility in [1] was 2.5 g/100 g H2O.
For `NCC(=O)O` [Glycine], in series [1], the pH was 5.97.
Regarding `N[C@@H](Cc1c[nH]cn1)C(=O)O` [Histidine], in series [1], the pH is listed as 7.47 and the Solubility is 4.19 g/100 g H2O.
As to `CC[C@H](C)[C@H](N)C(=O)O` [Isoleucine], in series [1], the pH is on record as 5.94 and the Solubility is 4.117 g/100 g H2O.
As for `Cc1c(OCC(F)(F)F)ccnc1C[S+]([O-])c1nc2ccccc2[nH]1` (centres unmarked) [Lansoprazole, lansoprazole], the Stability Range Factor (pH range) in [3] is 4.8 to 10.9. For the same molecule, the “time in which drug could undergo 50% degradation” value in series [4] is 2 min. For the same molecule, in [5], the Solubility in water entry was “very slightly” and the pKa entry is reported as “Lansoprazole has a pKa of 4.1; thus, the Essential pH = 4.1 + 0.7 ≧ 4.8”. Moreover, the Solubility in water result in series [5] (listed as Lansoprazole base) is “very slightly soluble in water”.
For `CC(C)C[C@H](N)C(=O)O` [Leucine], the Solubility in series [1] is 2.426 g/100 g H2O.
Take `NCCCC[C@H](N)C(=O)O` [Lysine]: in series [1], the pH is given as 9.59 and the Solubility entry is “Very”.
Take `CC(O)C(=O)[O-].CC(O)C(=O)[O-].[Mg+2]` (centres unmarked) [Magnesium lactate]: in [2], the pH is 5.5-7.5.
For `[O]=[Mg]` [Magnesium oxide], in [2], the pH is reported as 9.5-10.5 and the Solubility is 0.62 mg/100 mL.
For `CSCC[C@H](N)C(=O)O` [Methionine], in [1], the pH is 5.74 and the Solubility is reported as 3.381 g/100 g H2O.
`COc1ccc2[nH]c([S+]([O-])Cc3ncc(C)c(OC)c3C)nc2c1` (centres unmarked) [Omeprazole]: the “gastric pH four hours after omeprazole was first administered (mean)” value in the series on gastric pH [6] (40 mg omeprazole solution per ng tube) was 7.1 and 7.1±1.1. Also, in the series on gastric pH [6], the “lowest gastric pH after starting omeprazole (mean)” value is 5.6 and 5.6±1.3; the “mean gastric pH after starting omeprazole (mean)” value was 6.8 and 6.8±0.6. Also, in series [3], the Stability Range Factor (pH range) was 4.6 to 10.9. Moreover, the “time in which drug could undergo 50% degradation” value in series [4] was “less than 3 minutes”. Further, in [5], the Solubility in water result is recorded as “slightly soluble” and the pKa result is listed as “Omeprazole has a pKa of 3.9; thus, the Essential pH = 3.9 + 0.7 ≧ 4.6”. Also, in series [5] (listed as Omeprazole base), the Solubility in water result was “only slightly soluble in water”. In “clinical [7]”, this molecule had a concentration at 3 min of 0.0275 µg/mL, a concentration at 5 min of 0.0735 µg/mL and a concentration at 8 h of 0.232 µg/mL. Also, the concentration at 75 min in the series “clinical [7]” (oral) is 0.61 µg/mL. For the same molecule, the concentration at 0 h in the series “clinical [8]” was found to be 0 µg/mL. The “mean intragastric pH values” in the series on gastric pH [9] was > 4. Besides, the “absorption as measured by Area Under the Curve (AUC) compared to enteric-coated form” value in [10] is “did not appear to be significantly decreased”. For the same molecule, in [11] (high-risk population), the “adverse event or drug interaction attributable to omeprazole” value is “No patient; also recorded: No adverse events or drug interaction”. In addition, the incidence of pneumonia entry in series [11] (nine of 75 patients) is “twelve”.
For `COc1ccnc(C[S+]([O-])c2nc3ccc(OC(F)F)cc3[nH]2)c1OC` (centres unmarked) [Pantoprazole sodium], the “time in which drug could undergo 50% degradation” value in [4] is “less than 5 minutes”. In [5], the Solubility in water result is on record as “very soluble” and the pKa is 3. The Solubility in water entry in series [5] (listed as pantoprazole sodium) is given as “very soluble in water”.
Take `N[C@@H](Cc1ccccc1)C(=O)O` [Phenylalanine]: in [1], the pH is 5.48 and the Solubility is 2.965 g/100 g H2O.
`O=C(O)[C@@H]1CCCN1` [Proline]: in [1], the pH is recorded as 6.30.
Regarding `COCCCOc1ccnc(C[S+]([O-])c2nc3ccccc3[nH]2)c1C` (centres unmarked) [Rabeprazole sodium], the “time in which drug could undergo 50% degradation” value in series [4] is given as “less than 1.5 minutes”. In addition, in [5], the Solubility in water result is listed as “very soluble in water” and the pKa is on record as 4.9.
Turning to `N[C@@H](CO)C(=O)O` [Serine], the pH in series [1] is on record as 5.68.
`O=C([O-])CC(O)(CC(=O)[O-])C(=O)[O-].[Na+].[Na+].[Na+]` [Sodium citrate]: the pH in series [2] is reported as 5.
Turning to `O=C([O-])[C@H](O)[C@@H](O)[C@H](O)[C@H](O)CO.[Na+]` [Sodium gluconate], in series [2], the pH is 6-8.
On to `CC(O)C(=O)[O-].[Na+]` (centres unmarked) [Sodium lactate], for which, in series [2], the pH is listed as 7.
As for `O=P([O-])([O-])[O-].[Na+].[Na+].[Na+]` [Sodium phosphate (tribasic)], the pH in series [2] was 10.7-12.1.
In the case of `O=P(O)(O)OP(=O)(O)OP(=O)(O)O` [Sodium tripolyphosphate], in series [2], the pH was 9.7-10 and the Solubility is recorded as 6 gm/100 mL.
With `C[C@@H](O)[C@H](N)C(=O)O` [Threonine], in series [1], the pH is 5.64.
For the molecule `N[C@@H](Cc1c[nH]c2ccccc12)C(=O)O` [Tryptophan], in [1], the pH is 5.89 and the Solubility is 1.136 g/100 g H2O.
As for `N[C@@H](Cc1ccc(O)cc1)C(=O)O` [Tyrosine], the pH in series [1] is 5.66.
As for `CC(C)[C@H](N)C(=O)O` [Valine], in series [1], the pH is reported as 5.96 and the Solubility is 8.85 g/100 g H2O.
For `COc1ccc2nc([S@@+]([O-])Cc3ncc(C)c(OC)c3C)[nH]c2c1` [esomeprazole], in series [5], the pKa result is listed as “Essential pH (esomeprazole pKa = 3.9 + 0.7 ≧ 4.6)”.
As for `COc1ccnc(C[S+]([O-])c2nc3ccc(OC(F)F)cc3[nH]2)c1OC` (centres unmarked) [pantoprazole], the Stability Range Factor (pH range) in series [3] was 3.7 to 10.9.
Same read-out and setting: the same measure for `COCCCOc1ccnc(C[S+]([O-])c2nc3ccccc3[nH]2)c1C` (centres unmarked) [rabeprazole]: 5.6 to 10.9.
Take Calcium gluconate: the pH in [2] is 7.4.
As to Calcium glycerophosphate, the pH in series [2] is listed as 7.
Take Magnesium gluconate: the pH in series [2] is given as 7.3.
